The data set can be described thus: solvent given as SMILES.

Molecules are shown by their SMILES.

As for `CC[N+]1(CC)CN2C(=N1)C(C(=O)O)=Cc1cc(C)ccc12`, the emission maximum (in O) is on record as 469 nm.
As to `COc1ccc(C#Cc2c3ccccc3c3n2[B-](F)(F)[N+]2=C(C)C=C(C)C2=C3)cc1`, the emission maximum by setting is: (in CCCCCC) 620 nm; (in CCCCCCCCO) 629 nm; (in CCOC(C)=O) 623 nm; (in CN(C)C=O) 630 nm; (in ClCCl) 633 nm.
`CCCCN(CCCC)c1ccc(C#Cc2cc(C#Cc3ccc([N+](=O)[O-])cc3)c(C#Cc3ccc(N(CCCC)CCCC)cc3)cc2C#Cc2ccc([N+](=O)[O-])cc2)cc1` registered an emission maximum (in ClCCl) of 557 nm.
With `CCCCN(CCCC)c1ccc(C#Cc2cc(C#Cc3ccc(N(CCCC)CCCC)cc3)c(C#Cc3ccc(C#N)cc3)cc2C#Cc2ccc(C#N)cc2)cc1`, the emission maximum reads like this: (in ClCCl) 557 nm; (in c1ccccc1) 512 nm.
On to `CN(C)c1ccc(/C=C(\C#N)c2nc3ccccc3s2)cc1`, for which the emission maximum was 500 nm (in C1CCCCC1) and 520 nm (in CO).
`O=c1oc2ccccc2cc1-c1cn2ccccc2n1` registered an emission maximum (in ClC(Cl)Cl) of 456 nm.
For `CC1=N/C(=C\c2ccc(N(C)C)cc2)C(=O)N1C`, the emission maximum amounted to 437 nm (in C1CCCCC1); 452 nm (in C1CCOC1); 483 nm (in CC#N); 492 nm (in CO); 490 nm (in CS(C)=O); 482 nm (in ClCCl). Moreover, the emission maximum (in O) worked out at 520 nm.
Where the note is “in ClCCl”, `C(=C\c1ncccn1)/c1ccc(-c2ccc(N(c3ccccc3)c3ccccc3)cc2)cc1` registered an emission maximum of 530 nm.
For the compound `Cc1cc(O)c(C(=O)/C=C/c2ccc(Cl)cc2Cl)c(=O)o1`, the emission maximum runs as follows: (in CC#N) 473 nm; (in ClCCl) 472 nm.
For the compound `C(=C\c1ncnc2ccccc12)/c1ccc(N(c2ccccc2)c2ccccc2)cc1`, the emission maximum (in C1CCCCC1) is listed as 463 nm; the emission maximum (in C1CCOC1) was determined as 540 nm; the emission maximum (in CC#N) was determined as 598 nm; the emission maximum (in CS(C)=O) is listed as 600 nm; the emission maximum (in ClCCl) is reported as 571 nm.
Where the note is “in CCO”, `CNc1cc2nc3cc(F)c(F)cc3nc2cc1NC` returned an emission maximum of 529 nm.
`Cc1ccc(-c2ccc(-c3ccc(-c4ccc(C)cc4)cc3/C(=C(/c3ccccc3)c3cc(-c4ccc(C)cc4)ccc3-c3ccc(-c4ccc(C)cc4)cc3)c3ccccc3)cc2)cc1` registered an emission maximum (in C1CCOC1) of 498 nm.
In turn, `c1ccc2c(-c3cc(-c4nccs4)nc(-c4nccs4)c3)cccc2c1` gave an emission maximum (in CC#N) of 386 nm, an emission maximum (in CCCCCC) of 359 nm, an emission maximum (in CO) of 422 nm and an emission maximum (in ClC(Cl)Cl) of 377 nm.
In the case of `CCOC(=O)c1c2c3c(ccc(Cl)c3c3cc4ccccc4cc13)N(C)C2=O`, the emission maximum (in CC#N) amounted to 414 nm.
Regarding `COC1=[N+]2C(=C(c3ccc(C)cc3)c3ccc(OC)n3[B-]2(F)F)C=C1`, the emission maximum by setting is: (in C1CCCCC1) 525 nm; (in C1CCOC1) 528 nm; (in CC#N) 522 nm; (in CCOC(C)=O) 526 nm; (in CO) 523 nm; (in Cc1ccccc1) 530 nm. This compound returned an emission maximum (in ClC(Cl)Cl) of 529 nm.
For `COc1ccc(C2=C(C)C3=C(c4c(-c5ccccn5)nc5ccccn45)c4c(C)cc(C)n4[B-](F)(F)[N+]3=C2C)cc1`, the emission maximum (in ClCCl) was found to be 592 nm.
Still for that read-out and setting: the value for `COc1ccc(-c2cnc(-c3ccccc3)o2)cc1OC` was 400 nm.
Turning to `CC1(C)CC(/C=C/c2cn(-c3ccccc3)nc2-c2ccccc2)=CC(=C(C#N)C#N)C1`, the emission maximum (in C1CCOC1) is recorded as 556 nm; the emission maximum (in C1COCCO1) came out at 548 nm; the emission maximum (in CCO) is reported as 564 nm; the emission maximum (in CCOC(C)=O) is listed as 564 nm; the emission maximum (in CN(C)C=O) turned out to be 565 nm; the emission maximum (in CO) was 561 nm. Further, the emission maximum (in CS(C)=O) is recorded as 578 nm, the emission maximum (in Cc1ccccc1) is 542 nm, the emission maximum (in ClC(Cl)Cl) is 550 nm and the emission maximum (in ClCCl) was 550 nm.
For the compound `C[SiH](C)c1ccc([SiH](C)C)c2ccccc12`, the emission maximum (in C1CCCCC1) was found to be 333 nm.
Regarding `FC(F)(F)c1ccc(/C2=C3N=C(C(c4ccccc4)=C/3c3ccccc3)/C(c3ccc(C(F)(F)F)cc3)=c3\[nH]/c(c(-c4ccccc4)c3-c3ccccc3)=C(/c3ccc(C(F)(F)F)cc3)C3=N/C(=C(/c4ccc(C(F)(F)F)cc4)c4[nH]c2c(-c2ccccc2)c4-c2ccccc2)C(c2ccccc2)=C3c2ccccc2)cc1`, for the setting “in ClCCl”, the emission maximum turned out to be 730 nm.
As for `COC(=O)c1cc(=O)n(C)c2cc(-c3ccc(N(C)C)cc3)sc12`, the emission maximum was 599 nm (in CC#N) and 554 nm (in ClCCl).
The compound `c1ccc2c(c1)ccc1oc3ccc4cc5oc6ccc7ccc8oc9ccc%10ccccc%10c9c8c7c6c5cc4c3c12` showed an emission maximum (in CC#N) of 432 nm.
`c1ccc(N(c2ccccc2)c2cc3c4c(c2)N(c2ccccc2)c2cc5c(cc2B4c2ccccc2N3c2ccccc2)B2c3ccccc3N(c3ccccc3)c3cc(N(c4ccccc4)c4ccccc4)cc(c32)N5c2ccccc2)cc1` had an emission maximum (in Cc1ccccc1) of 468 nm and an emission maximum (in Cc1ccccc1-c1cccc(Oc2cc3c4c(c2)Oc2cc(-c5ccccc5C)ccc2B4c2ccc(-c4ccccc4C)cc2O3)c1) of 473 nm.
For the compound `O=C(c1ccccc1)c1cc2ccc1CCc1ccc(c(-c3ccc(N(c4ccccc4)c4ccccc4)cc3)c1)CC2`, the emission maximum amounted to 455 nm (in Cc1ccccc1) and 468.87 nm (in c1cc(-n2c3ccccc3c3ccccc32)cc(-n2c3ccccc3c3ccccc32)c1).
On to `CCCCN(CCCC)c1ccc(/C=C/c2ccc3nc(/C=C/c4ccc(N(C)C)cc4)c(-c4ccccc4)nc3c2)cc1`, for which the emission maximum runs as follows: (in C1COCCO1) 549 nm; (in CC#N) 661 nm; (in ClCCl) 615 nm.
For `CC1=N/C(=C\c2ccccc2N)C(=O)N1C`, the emission maximum (in C1CCCCC1) is given as 451 nm; the emission maximum (in C1CCOC1) came out at 513 nm; the emission maximum (in CC#N) stood at 453 nm; the emission maximum (in CO) was 454 nm; the emission maximum (in CS(C)=O) is reported as 530 nm; the emission maximum (in ClCCl) is 452 nm. For the same compound, the emission maximum (in O) was found to be 452 nm.
On to `C=CCNc1ccc2c(ccc3oc4cc(=[N+](C)C)ccc-4nc32)c1`, for which the emission maximum is, setting by setting: (in CC#N) 654 nm; (in CCO) 650 nm; (in ClCCl) 645 nm; (in O) 660 nm.
`CC1(C)c2ccccc2N(c2ccccc2)c2ccc(-c3ccc(S(=O)(=O)c4ccc(-c5ccc6c(c5)C(C)(C)c5ccccc5N6c5ccccc5)cc4)cc3)cc21`: the emission maximum reads like this: (in Cc1ccccc1) 419.03 nm; (in O=P(c1ccccc1)(c1ccccc1)c1ccccc1Oc1ccccc1P(=O)(c1ccccc1)c1ccccc1) 439 nm.
`c1ccc(-c2ncc3ccccn23)cc1`: under “in ClC(Cl)Cl”, the emission maximum was 461 nm.
On to `COCCC1=Cc2nc1ccc1[nH]c(cc1CCOC)c1nc(ccc3[nH]c2cc3CCOC)C(CCOC)=C1`, for which, for the setting “in Cc1ccccc1”, the emission maximum is recorded as 642 nm.
Turning to `CN(C)c1ccc(/C=C/C=C/C2=NC3C(=O)NC(N)=NC3N2[C@H]2C[C@H](O)[C@@H](CO)O2)cc1` (stereo partly drawn), the emission maximum is, setting by setting: (in C1COCCO1) 429 nm; (in CC#N) 443 nm; (in CO) 438 nm.
As to `N#Cc1c(-n2c3ccccc3c3cc(I)ccc32)c(-n2c3ccccc3c3cc(I)ccc32)c(C#N)c(-n2c3ccccc3c3cc(I)ccc32)c1-n1c2ccccc2c2cc(I)ccc21`, the emission maximum (in Cc1ccccc1) was 548 nm.
`COCCC1=Cc2nc1ccc1[nH]c(cc1CCOC)c1nc(c(OC)cc3[nH]c2cc3CCOC)C(CCOC)=C1` came in with an emission maximum (in Cc1ccccc1) of 690 nm.
With `CSc1ccc(/C=C/c2cnc3ccccc3n2)cc1`, the emission maximum reads like this: (in C1CCOC1) 467 nm; (in CC#N) 499 nm; (in CCCCCCC) 426 nm; (in CS(C)=O) 513 nm; (in ClCCl) 475 nm.
With `CN(C)c1ccc2c(c1)C(C)(C)C1=CC(=[N+](C)C)C=CC1=C2C#Cc1ccccc1`, the emission maximum is 705 nm (in CO) and 708 nm (in O).
For the compound `Cc1ccc(C(=O)NN2C3=C(CC4=C2CCCC4=O)C(=O)CCC3)cc1`, the emission maximum is given as 435 nm (in C1CCOC1); 343 nm (in CC#N); 368 nm (in CC(C)=O); 445 nm (in CCCCCO); 447 nm (in CO); 438 nm (in ClC(Cl)Cl). The compound further came in with an emission maximum (in ClCCl) of 435 nm.
Where the note is “in Cc1ccccc1”, `Cc1cc(C)c(B(c2ccc(C#Cc3cc4ccc5cc(C#Cc6ccc(B(c7c(C)cc(C)cc7C)c7c(C)cc(C)cc7C)cc6)cc6ccc(c3)c4c56)cc2)c2c(C)cc(C)cc2C)c(C)c1` registered an emission maximum of 426 nm.
The compound `O=C1CC(c2ccc(F)cc2)c2c(c3ccccc3c3nc4ccccc4nc23)O1` (stereo not drawn) returned an emission maximum (in ClC(Cl)Cl) of 437 nm.
For the compound `N#C/C(=C\c1ccc([N+](=O)[O-])cc1)c1nc(-c2ccccc2)cs1`, the emission maximum (in CC#N) is reported as 552 nm.
Consider `Cc1ccc2c(c1)C(C)(C)c1cc(C)ccc1N2c1ccc2c(c1)C(C)(C)c1cc(N3c4ccc(C)cc4C(C)(C)c4cc(C)ccc43)ccc1S2(=O)=O`, for which the emission maximum is recorded as 470.07 nm (in Cc1ccccc1) and 538 nm (in ClCCl).
In the case of `N#CC1=c2c3cccc4c(Br)ccc(c43)n2[B-](F)(F)[n+]2ccccc21`, the emission maximum is 545 nm (in C1CCOC1); 541 nm (in CC#N); 545 nm (in CCCCCC); 550 nm (in Cc1ccccc1); 546 nm (in ClCCl).
On to `CCOC(=O)c1c(-c2cc3ccc(OCC=C(C)C)cc3oc2=O)nn(-c2cccc(Cl)c2)c1C(=O)OCC`, for which the emission maximum (in ClCCl) turned out to be 426 nm.
On to `O=S1c2ccccc2-c2cc(-c3c4ccccc4cc4ccccc34)ccc21` (stereo not drawn), for which the emission maximum reads like this: (in C1CCCCC1) 401.88 nm; (in CC#N) 504.43 nm; (in ClCCl) 444.61 nm.

The values are drawn from the Deep4Chem optical property database.
